Common to all, as to assay type: cell-based
Experiment [1] concerns Balamuthia mandrillaris trophozoites. Briefly: CellTiter-Glo 2.0 trophocidal assay, B. mandrillaris. The following applies: for IC50: CTG method, 72 h, duplicate twofold serial dilutions from 10 µM, mean ± SD. How it is done: Pathogenic Balamuthia mandrillaris (CDC:[…]; American Type Culture Collection (ATCC) 50209), a GAE isolate, isolated from a pregnant baboon at the San Diego Zoo in 1986 was donated by Luis Fernando […] University, Mexico [43]. Trophozoites were routinely grown axenically in Balamuthia mandrillaris Itson (BMI) media at 37 °C, 5% CO2 in vented 75 cm^2 tissue culture flasks (Olympus, El Cajon, CA, USA), until the cells were 80-90% confluent. For sub-culturing, 0.25% Trypsin-EDTA (Gibco, Gaithersburg, MD, USA) cell detachment reagent was used to detach the cells from the culture flasks. The cells were collected by centrifugation at 4000 rpm at 4 °C. Complete BMI media is produced by the addition of 10% fetal bovine serum (FBS) and 125 μg of penicillin/streptomycin antibiotics. The trophocidal activity of compounds was assessed using the CellTiter-Glo 2.0 luminescent viability assay (Promega, Madison, WI, USA), as previously described. Trophozoites were routinely cultured as described above and only logarithmic trophozoites were used. […] Inhibitors were assessed for percent inhibition using the criteria of ≤33% growth inhibition (no inhibition), 33-67% growth inhibition (moderate inhibition), and ≥67% growth inhibition (strong inhibition). […] We used this process to reduce the number of potential false positives. […] All assays were incubated at each of the parasites' representative growth temperatures, described above, for 72 h. At the 72 h time point, 25 μL of CellTiter-Glo 2.0 reagent was added to all wells of the 96-well plates using the Biomek NX^P automated workstation. The plates were protected from light and contents were mixed using an orbital shaker at 300 rpm at room temperature for 2 min to induce cell lysis. After shaking, the plates were equilibrated at room temperature for 10 min to stabilize the luminescent signal. The adenosine triphosphate (ATP) luminescent signal (relative light units; RLUs) was measured at 490 nm with a SpectraMax I3X plate reader (Molecular Devices, Sunnyvale, CA, USA). Drug inhibitory concentration (IC50) curves were generated using total ATP RLUs, where controls were calculated as the average of replicates using the Levenberg-Marquardt algorithm, using DMSO as the normalization control, as defined in Collaborative Drug Discovery Inc. (CDD) Vault (Burlingame, CA, USA). Values reported are from a minimum of two biological replicates with standard deviations.
For orientation: ATP-based viability assays read luminescence as a measure of living cells.

Experiment [2] has as its system Naegleria fowleri trophozoites. Briefly: CellTiter-Glo 2.0 trophocidal assay, N. fowleri. The following applies: CTG method, 72 h, duplicate twofold serial dilutions from 10 µM, mean ± SD; read-out: N. fowleri Mean IC50 (µM) ± SD. How it is done:
Pathogenic Naegleria fowleri (ATCC 30215), a clinical isolate obtained from a child in Adelaide, Australia, that died of PAM in 1969 was previously purchased from the American Type Culture Collection (ATCC). Trophozoites were routinely grown axenically at 34 °C in Nelson’s complete medium (NCM) in non-vented 75 cm^2 tissue culture flasks (Olympus, El Cajon, CA, USA), until the cells were 80–90% confluent. For sub-culturing, cells were placed on ice to detach the cells from the culture flasks. The cells were collected by centrifugation at 4000 rpm at 4 °C. Complete NCM media is produced by the addition of 10% FBS and 125 μg of penicillin/streptomycin antibiotics.
The trophocidal activity of compounds was assessed using the CellTiter-Glo 2.0 luminescent viability assay (Promega, Madison, WI, USA), as previously described. Trophozoites were routinely cultured as described above and only logarithmic trophozoites were used. In brief, B. mandrillaris, N. fowleri, or A. castellanii trophozoites cultured in their corresponding media were seeded at 16,000, 3000, or 1440 cells/well into white 96-well plates (Costar 3370), respectively. Initially all compounds were assessed in a single-point drug screen at 10 and 1 μM, as previously described. […] Control wells were supplemented with 0.1% (10 μM screening plate) or 0.01% (1 μM screening plate) DMSO, as the negative controls, or 12.5 μM of chlorhexidine, as the positive control. Following the single-point assays at 10 and 1 µM, we prioritized compounds for progression to IC50 determinations. […] We used this process to reduce the number of potential false positives. Drugs were cherry-picked, dissolved in the media specific to each parasite, and assessed in twofold serial dilutions from the highest concentration of 10 μM. All assays were incubated at each of the parasites’ representative growth temperatures, described above, for 72 h. At the 72 h time point, 25 μL of CellTiter-Glo 2.0 reagent was added to all wells of the 96-well plates using the Biomek NX^P automated workstation. The plates were protected from light and contents were mixed using an orbital shaker at 300 rpm at room temperature for 2 min to induce cell lysis. After shaking, the plates were equilibrated at room temperature for 10 min to stabilize the luminescent signal. The adenosine triphosphate (ATP) luminescent signal (relative light units; RLUs) was measured at 490 nm with a SpectraMax I3X plate reader (Molecular Devices, Sunnyvale, CA, USA). Drug inhibitory concentration (IC50) curves were generated using total ATP RLUs, where controls were calculated as the average of replicates using the Levenberg–Marquardt algorithm, using DMSO as the normalization control, as defined in Collaborative Drug Discovery Inc. (CDD) Vault (Burlingame, CA, USA). Values reported are from a minimum of two biological replicates with standard deviations.

The test system of experiment [3] is Acanthamoeba castellanii trophozoites. Briefly: CellTiter-Glo 2.0 trophocidal assay, A. castellanii. The following applies: for IC50: CTG method, 72 h, duplicate twofold serial dilutions from 10 µM, mean ± SD. The method, then:
This isolate was also purchased from ATCC. Trophozoites were routinely grown axenically at 27 °C in Protease Peptone-Glucose Media (PG) in non-vented 75 cm^2 tissue culture flasks (Olympus, El Cajon, CA, USA), until the cells were 80–90% confluent. For sub-culturing, cells were mechanically harvested to detach the cells from the culture flasks. The cells were collected by centrifugation at 4000 rpm at 4 °C.
The trophocidal activity of compounds was assessed using the CellTiter-Glo 2.0 luminescent viability assay (Promega, Madison, WI, USA), as previously described. Trophozoites were routinely cultured as described above and only logarithmic trophozoites were used. […] Initially all compounds were assessed in a single-point drug screen at 10 and 1 μM, as previously described. […] We used this process to reduce the number of potential false positives. Drugs were cherry-picked, dissolved in the media specific to each parasite, and assessed in twofold serial dilutions from the highest concentration of 10 μM. All assays were incubated at each of the parasites’ representative growth temperatures, described above, for 72 h. At the 72 h time point, 25 μL of CellTiter-Glo 2.0 reagent was added to all wells of the 96-well plates using the Biomek NX^P automated workstation. The plates were protected from light and contents were mixed using an orbital shaker at 300 rpm at room temperature for 2 min to induce cell lysis. After shaking, the plates were equilibrated at room temperature for 10 min to stabilize the luminescent signal. The adenosine triphosphate (ATP) luminescent signal (relative light units; RLUs) was measured at 490 nm with a SpectraMax I3X plate reader (Molecular Devices, Sunnyvale, CA, USA). Drug inhibitory concentration (IC50) curves were generated using total ATP RLUs, where controls were calculated as the average of replicates using the Levenberg–Marquardt algorithm, using DMSO as the normalization control, as defined in Collaborative Drug Discovery Inc. (CDD) Vault (Burlingame, CA, USA). Values reported are from a minimum of two biological replicates with standard deviations.

Experiment [4] has as its system A549 human lung carcinoma cells. Nature of the experiment: MTS cytotoxicity counter-screen of reconfirmed hits. Particulars: MTS assay, 72 h, doubling dilutions from 10 µM; read-out: A549 Mean IC50. The method, then: Cytotoxicity of the reconfirmed hits was determined by using the CellTiter 96® AQueous One Solution Cell Proliferation Assay (Promega, Madison, WI) on A549 human lung carcinoma cells. A549 cells were seeded at a concentration of 1.6 × 10^4 cells/mL in 96-well tissue culture plates (Corning, NY, USA), in the presence of serially diluted active hits against B. mandrillaris, N. fowleri, or A. castellanii. Positive control wells contained cells and media; negative control wells contained 0.1% DMSO. Cells were grown in F12K medium supplemented with 10% FBS and 1% gentamycin (all supplied from Fisher Scientific, Atlanta, GA, USA). The inhibitor concentration started at 10 µM and was diluted in doubling dilutions to assess cytotoxicity in comparison to the respective free-living amoeba. Total volume of each well was 100 µL and plates were incubated at 37 °C, 5% CO2 for 72 h. Next, 4 h before the time-point, 20 µL of MTS (Promega, Madison, WI, USA) was added to each well. Inhibition of A549 growth was assessed at the 72 h time-point measuring the optical density (OD) values at 490 nm using a SpectraMax I3X plate reader (Molecular Devices, Sunnyvale, CA, USA). Curve fitting using non-linear regression was carried out using the average of replicates and the Levenberg–Marquardt algorithm, using DMSO as the normalization control, as defined in CDD Vault (Burlingame, CA, USA).
(In general: The purpose of a counterscreen is to sort out artefacts and off-target activity.)

One may read the IC50 as the concentration needed to halve the response being measured.

On to `O=C1C=C(c2ccccc2)S(=O)(=O)c2ccccc21` [1,1-dioxide 1-thioflavone], for which the IC50 is 0.37 ± 0.01 µM in experiment [1], 5 µM in experiment [2], over 10 µM in experiment [3] and over 10 µM in experiment [4]. Further, the “potency against B. mandrillaris, in words” value in experiment [1] (dose-response, CTG) is “nanomolar potency”.

With `O[C@@](Cn1cnnn1)(c1ccc(F)cc1F)C(F)(F)c1ccc(-c2ccc(OCC(F)(F)F)cc2)cn1` [MMV1634386], the IC50 in experiment [1] is over 10 µM; in experiment [2] it was 2.4 ± 1.7 µM; in experiment [3], 0.16 ± 0.09 µM; in experiment [4], over 10 µM. Further, in experiment [3] (dose-response, CTG), the “potency against A. castellanii, in words” value is “nanomolar potency”.

With `O=C(/C(=C/c1ccc(Cl)cc1Cl)n1ccnc1)c1ccc(Cl)cc1` [MMV1634491], the IC50 in experiment [1] was over 10 µM; in experiment [2], 5.15 ± 1.35 µM; in experiment [4] it was over 10 µM.

As to `Clc1cc(Cl)c2c(c1)CCc1ccccc1C2n1ccnc1` (stereo not drawn) [Eberconazole], the IC50 in experiment [1] is over 10 µM; in experiment [2], 1.22 ± 0.66 µM; in experiment [3] it was 3.7 ± 1.13 µM; in experiment [3] (listed as eberconazole) it was at most 10 µM; in experiment [4], over 10 µM.
